This is an account of results in ChEMBL document CHEMBL4152331, “Thiodipeptides targeting the intestinal oligopeptide transporter as a general approach to improving oral drug delivery” (Eur J Med Chem, 2018).

Molecules are shown by their SMILES. pKi: −log10 of the molar value.

The target of data set [1] is T1, Solute carrier family 15 member 1 (Oryctolagus cuniculus, UniProt P36836).
T1 sequence (P36836 whole entry): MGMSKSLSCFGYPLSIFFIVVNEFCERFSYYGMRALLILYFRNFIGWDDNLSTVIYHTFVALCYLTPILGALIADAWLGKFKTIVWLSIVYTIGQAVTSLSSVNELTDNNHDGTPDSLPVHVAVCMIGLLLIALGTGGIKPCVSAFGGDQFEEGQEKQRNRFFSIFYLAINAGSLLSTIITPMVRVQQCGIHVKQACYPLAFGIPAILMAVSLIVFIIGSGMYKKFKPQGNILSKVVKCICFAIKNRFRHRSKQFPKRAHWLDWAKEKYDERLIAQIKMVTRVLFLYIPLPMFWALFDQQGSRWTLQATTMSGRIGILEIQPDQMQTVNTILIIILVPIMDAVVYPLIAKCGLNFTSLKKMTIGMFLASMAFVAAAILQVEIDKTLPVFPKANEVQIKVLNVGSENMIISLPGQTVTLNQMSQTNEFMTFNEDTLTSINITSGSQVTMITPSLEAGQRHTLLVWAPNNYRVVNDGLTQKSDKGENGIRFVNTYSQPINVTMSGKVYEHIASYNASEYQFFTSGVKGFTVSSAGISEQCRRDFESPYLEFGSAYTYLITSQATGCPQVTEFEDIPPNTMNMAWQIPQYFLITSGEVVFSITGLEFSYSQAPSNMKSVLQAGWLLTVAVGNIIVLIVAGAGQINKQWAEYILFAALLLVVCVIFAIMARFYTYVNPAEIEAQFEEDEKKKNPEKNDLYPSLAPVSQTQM
Kind of data set: Binding affinity to rabbit PepT1 expressed in Xenopus laevis oocytes assessed as inhibition of [3H]-D-Phe-L-Gln uptake by Michaelis-Menten kinetics analysis. In kind it is ADME, cell-based.

Data set [2] is described as follows: Stability of the compound in pH 5.5 buffer. In kind it is physicochemical.
Data set [3] has as its target T2, Solute carrier family 15 member 1 (Homo sapiens, UniProt P46059).
T2 sequence (P46059 whole entry): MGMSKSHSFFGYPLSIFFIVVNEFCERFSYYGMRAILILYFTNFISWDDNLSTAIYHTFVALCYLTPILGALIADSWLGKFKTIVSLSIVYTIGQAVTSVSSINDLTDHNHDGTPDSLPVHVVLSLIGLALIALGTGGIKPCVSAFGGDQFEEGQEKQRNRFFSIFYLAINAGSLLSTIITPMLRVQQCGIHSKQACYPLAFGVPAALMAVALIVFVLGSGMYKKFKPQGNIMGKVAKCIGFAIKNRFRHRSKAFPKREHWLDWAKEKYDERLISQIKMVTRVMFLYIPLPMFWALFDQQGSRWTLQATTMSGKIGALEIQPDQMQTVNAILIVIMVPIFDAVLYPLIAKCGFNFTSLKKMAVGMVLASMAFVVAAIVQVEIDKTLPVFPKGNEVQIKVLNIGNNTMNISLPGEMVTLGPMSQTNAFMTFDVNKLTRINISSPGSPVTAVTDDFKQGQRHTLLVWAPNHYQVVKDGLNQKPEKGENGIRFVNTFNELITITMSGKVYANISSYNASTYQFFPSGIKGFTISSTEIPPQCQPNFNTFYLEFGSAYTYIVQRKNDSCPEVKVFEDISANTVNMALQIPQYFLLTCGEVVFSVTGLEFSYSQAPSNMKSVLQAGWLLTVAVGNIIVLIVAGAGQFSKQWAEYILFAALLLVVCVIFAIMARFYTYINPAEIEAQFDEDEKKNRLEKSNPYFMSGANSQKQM
Kind of data set: Ratio of substrate activity of FSA to compound at PepT1 in human Caco2 cells assessed as apparent permeability form apical to basolateral side at 2 mM in presence of Gly-Gln after 1 hr by HPLC analysis. The following applies: caco-2, 1 h, 2000 µM. For orientation: Caco-2 monolayers are a common model of the intestinal barrier.

The next data set has as its target T3, PepT1 (Homo sapiens, UniProt P46059).
T3 sequence (P46059 whole entry): T2 sequence (P46059 whole entry)
Kind of data set: Substrate activity at PepT1 in human Caco2 cells assessed as apparent permeability form apical to basolateral side at 2 mM in presence of Gly-Gln after 1 hr by HPLC analysis. The following applies: Caco-2, with Gly-Gln.

In the next data set the test system is Caco-2. Kind of data set: Ratio of apparent permeability of FSA to compound in human Caco2 cells from apical to basolateral side at 2 mM after 1 hr by HPLC analysis. The following applies: caco-2, 1 h, 2000 µM.
Data set [4] can be described thus: Apparent permeability of the compound in human Caco2 cells from apical to basolateral side at 2 mM after 1 hr by HPLC analysis. The note with it: Caco-2.
Data set [5] is described as follows: Half life in rat liver homogenate at 0.5 mM after 24 hrs by HPLC analysis. It is filed as ADME, tissue-based.
Data set [6] has as its system Rattus norvegicus. Kind of data set: AUC in Sprague-Dawley rat assessed as ibuprofen release level at 10 mg/kg, po by LC-MS/MS analysis. The note with it: in vivo.
Data set [7] relates to Rattus norvegicus. Kind of data set: Cmax in Sprague-Dawley rat assessed as ibuprofen release level at 10 mg/kg, po by LC-MS/MS analysis. The note with it: in vivo.
The subject of data set [8] is Rattus norvegicus. Kind of data set: Tmax in Sprague-Dawley rat assessed as ibuprofen release level at 10 mg/kg, po by LC-MS/MS analysis. The note with it: in vivo.
Data set [9] has as its system Rattus norvegicus. Kind of data set: Relative bioavailability in Sprague-Dawley rat assessed as ibuprofen release level at 10 mg/kg, po by LC-MS/MS analysis. The note with it: in vivo.
For data set [10], the system named is Rattus norvegicus. Kind of data set: Bioavailability in Sprague-Dawley rat at 6 mg/kg, po by LC-MS/MS analysis. The note with it: in vivo.

Turning to `C[C@H](N)C(=S)N[C@@H](CC(=O)OCCOCn1cnc2c(=O)[nH]c(N)nc21)C(=O)O`, the Ki entry in data set [1] is recorded as “Nd(Unstable)”. Besides, the Stability result in data set [2] is “Unstable”.

For the molecule `CC(=O)Oc1ccccc1C(=O)OCCOCCOCCOC(=O)C[C@H](NC(=S)[C@H](C)N)C(=O)O`, the Ki entry in data set [1] is on record as “Nd(Unstable)”. Besides, in data set [2], the Stability entry was “Unstable”.

By Papp A→B is commonly meant how fast a substance crosses the layer from the apical side. For `C[C@H](N)C(=S)N[C@@H](COC(=O)CC1(CN)CCCCC1)C(=O)O`, the Ratio in data set [3] came to 0.69; in the data set on Caco-2 it was 0.46. Besides, at PepT1, the Papp A→B at 1 h, 2000 µM stood at 0.4 ×10⁻⁶ cm/s.

In general, pKi refers to −log10 of the Ki, conventionally taken in molar units. As to `COc1ccc2cc(CC/C(C)=N/OCCOC(=O)C[C@H](NC(=S)[C@H](C)N)C(=O)O)ccc2c1`, the Ratio was determined as 1.3 in [3] and 1.94 in the data set with Caco-2. The pKi in data set [1] (read-out: Ki) was 4.10. Besides, the Papp A→B at 1 h, 2000 µM in data set [4] worked out at 9.7 ×10⁻⁶ cm/s; on PepT1, 4.4 ×10⁻⁶ cm/s.

As to `C[C@H](NC(=O)[C@@H](N)Cc1ccccc1)C(N)=S`, at PepT1, the Papp A→B at 1 h, 2000 µM is 1.9 ×10⁻⁶ cm/s.

The term half-life denotes the time needed for the level to fall by half in the phase considered. For the molecule `CC(C)c1cccc(C(C)C)c1OC(=O)C[C@H](NC(=S)[C@H](C)N)C(=O)O`, the Ratio came to 0.89 in data set [3] and 0.41 with Caco-2. For the same molecule, the Papp A→B at 1 h, 2000 µM (in [4]; at PepT1) was 0.5 ×10⁻⁶ cm/s throughout. The molecule further had a half-life at 500 µM in data set [5] of 7.3 h.

Usually AUC stands for concentration integrated over time. For orientation: Cmax means the peak of the concentration-time curve. As usually defined, the Tmax is the time at which the peak concentration occurs. For `CC(C)Cc1ccc([C@@H](C)C(=O)OC[C@H](NC(=S)[C@H](C)N)C(=O)O)cc1`, the Ratio in data set [3] is recorded as 1.07; with Caco-2, 1.29. The Papp A→B at 1 h, 2000 µM at PepT1 turned out to be 2.1 ×10⁻⁶ cm/s. This molecule gave a half-life at 500 µM in data set [5] of 17.9 h. Besides, the AUC with Rattus norvegicus [6] came to 700 ng·h/mL. In the data set with Rattus norvegicus [7], the Cmax stood at 200 ng/mL. In addition, the Tmax with Rattus norvegicus [8] was determined as 3.2 h. In addition, the F with Rattus norvegicus [9] amounted to 2.8%.

Turning to `CC(C)Cc1ccc(C(C)C(=O)O)cc1` (configuration not stated) [IBUPROFEN], in the data set on Rattus norvegicus [10], the F amounted to 100%.
